Assay results taken from patent publication US8012969B2, “11C-labeled benzyl-lactam compounds and their use as imaging agents” (GE Healthcare Limited, priority 2005, dated 2011).

How the values were obtained:
[1] = biological target: T1, 5HT1B receptor (Cavia porcellus, UniProt O08892); experiment: in-vitro autoradiographies with compound I-B; type: binding; details: in-vitro autoradiography, Guinea pig
T1 construct: in-vitro autoradiographies and ex-vivo experiments in Guinea pig; from tissue; host or cells: guinea pig brain (external globus pallidus, ventral pallidum)

[2] = biological target: T2, 5HT1B receptor (Macaca mulatta, UniProt F6SFA9); experiment: in-vivo PET-experiments with compound I-B; details: Rhesus monkeys
T2 construct: in-vivo PET-experiments in Rhesus monkeys; from tissue; host or cells: brain of living rhesus monkeys (PET)

[3] = biological target: T1, 5HT1B receptor; experiment: ex-vivo experiments with compound I-B; type: in vivo; details: Guinea pig

T1 sequence (O08892 whole entry): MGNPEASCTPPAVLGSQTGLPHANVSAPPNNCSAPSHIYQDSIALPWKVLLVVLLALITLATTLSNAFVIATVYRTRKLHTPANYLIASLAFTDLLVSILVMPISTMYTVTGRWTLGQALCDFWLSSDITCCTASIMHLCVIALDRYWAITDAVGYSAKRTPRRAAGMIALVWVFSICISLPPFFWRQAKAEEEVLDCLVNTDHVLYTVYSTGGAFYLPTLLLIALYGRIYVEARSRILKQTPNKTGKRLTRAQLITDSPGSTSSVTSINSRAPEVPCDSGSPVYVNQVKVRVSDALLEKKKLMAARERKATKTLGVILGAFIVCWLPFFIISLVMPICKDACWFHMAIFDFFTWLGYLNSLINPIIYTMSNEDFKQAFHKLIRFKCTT
T2 sequence (F6SFA9 1-390): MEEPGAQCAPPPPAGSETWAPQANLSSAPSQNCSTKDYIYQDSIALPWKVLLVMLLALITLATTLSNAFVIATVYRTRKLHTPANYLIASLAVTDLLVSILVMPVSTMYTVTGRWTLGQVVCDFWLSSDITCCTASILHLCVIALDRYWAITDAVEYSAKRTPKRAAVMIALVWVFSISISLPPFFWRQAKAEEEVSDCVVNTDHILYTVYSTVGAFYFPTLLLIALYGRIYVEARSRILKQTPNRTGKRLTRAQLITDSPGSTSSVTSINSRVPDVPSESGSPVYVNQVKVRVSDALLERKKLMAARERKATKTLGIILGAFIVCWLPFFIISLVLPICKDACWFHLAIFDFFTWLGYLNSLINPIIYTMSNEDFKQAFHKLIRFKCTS

COC(C)(C)c1ccc(N2CC[C@@H](Cc3ccccc3N3CCN([11CH3])CC3)C2=O)cc1 [compound I-B, R-1-[4-(2-methoxy-isopropyl)-phenyl]-3-[2-(4-[^11C]methyl-piperazin-1-yl)benzyl]-pyrrolidin-2-one]
sensitivity of uptake to blocking by other 5HT1B antagonists [1]: sensitive to blocking by other 5HT1B antagonists in a dose dependent manner
specific uptake (regional distribution) [1]: specific uptake of compound I-B mainly in the external globus pallidus and ventral pallidum
sensitivity of uptake to blocking by other 5HT1B antagonists [2]: sensitive to blocking by other 5HT1B antagonists in a dose dependent manner
specific uptake (regional distribution) [2]: specific uptake of compound I-B mainly in the external globus pallidus and ventral pallidum
sensitivity of uptake to blocking by other 5HT1B antagonists [3]: sensitive to blocking by other 5HT1B antagonists in a dose dependent manner
specific uptake (regional distribution) [3]: specific uptake of compound I-B mainly in the external globus pallidus and ventral pallidum
